Assay results: ChEMBL document CHEMBL4622911, “A cell-based fluorescent assay for FAP inhibitor discovery” (Bioorg Med Chem Lett, 2020)

Columns and labels:
Assay type in all cases: cell-based
Details in all cases: U-87MG ATCC
[1] = biological target: Prolyl endopeptidase FAP (Homo sapiens) (UniProt Q12884); experiment: Inhibition of FAP in human U87MG cells using Suc-Gly-Pro-AMC as substrate at 1 uM incubated for 90 mins by fluorescence based assay relative to control
[2] = biological target: Prolyl endopeptidase FAP (Homo sapiens) (UniProt Q12884); experiment: Inhibition of FAP in human U87MG cells using Z-Gly-Pro-AMC as substrate at 1 uM incubated for 90 mins by fluorescence based assay relative to control
[3] = biological target: Prolyl endopeptidase FAP (Homo sapiens) (UniProt Q12884); experiment: Inhibition of FAP in human U87MG cells using Gly-Pro-AMC as substrate at 1 uM incubated for 90 mins by fluorescence based assay relative to control

Chain of Prolyl endopeptidase FAP (Homo sapiens) (Q12884 whole entry): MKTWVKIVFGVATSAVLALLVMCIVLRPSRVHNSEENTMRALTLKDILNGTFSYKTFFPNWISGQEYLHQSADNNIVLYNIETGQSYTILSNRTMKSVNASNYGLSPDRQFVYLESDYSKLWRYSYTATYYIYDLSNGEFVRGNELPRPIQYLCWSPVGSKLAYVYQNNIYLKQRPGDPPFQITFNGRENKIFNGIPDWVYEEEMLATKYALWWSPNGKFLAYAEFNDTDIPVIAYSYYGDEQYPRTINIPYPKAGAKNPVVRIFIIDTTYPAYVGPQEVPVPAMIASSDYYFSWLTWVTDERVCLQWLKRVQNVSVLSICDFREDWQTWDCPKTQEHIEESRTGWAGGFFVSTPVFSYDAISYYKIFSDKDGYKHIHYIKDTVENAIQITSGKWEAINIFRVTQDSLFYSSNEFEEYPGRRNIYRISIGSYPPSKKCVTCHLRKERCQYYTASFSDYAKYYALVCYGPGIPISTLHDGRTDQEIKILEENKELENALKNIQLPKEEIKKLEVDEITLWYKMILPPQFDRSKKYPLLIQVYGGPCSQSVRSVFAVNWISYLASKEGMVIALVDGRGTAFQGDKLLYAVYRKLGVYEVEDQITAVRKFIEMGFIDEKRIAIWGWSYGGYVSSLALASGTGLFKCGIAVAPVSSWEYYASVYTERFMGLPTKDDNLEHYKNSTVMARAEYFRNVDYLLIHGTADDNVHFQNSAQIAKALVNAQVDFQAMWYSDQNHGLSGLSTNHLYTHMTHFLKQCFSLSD

## N#C[C@@H]1CC(F)(F)CN1C(=O)CNC(=O)c1ccnc2ccccc12
[1]
  inhibition: 91.9%
[2]
  inhibition: 30.7%
[3]
  inhibition: 17.5%
